Earlier results as cited in PubChem BioAssay AID1259409 (Chemical Carcinogenesis Research Information System (CCRIS), 2018).

System: rodent chemically induced tumor inhibition, incidence and multiplicity
Test: CCRIS tumor inhibitor studies
Details: for tumour outcome (control, treated, inhibition, significance): Promoter: NONE USED

O=[Se](O)O
tumour outcome (control, treated, inhibition, significance) (Carcinogen: N,N-DIETHYLNITROSAMINE, 55-18-5, Dose [Inhibitor]: 0.1 MG 5/WK STARTING 10-15 D BEFORE CARCINOGEN TREATMENT AND CONTINUING FOR DURATION OF STUDY (STUDY DURATION: 26 WK), Route [Inhibitor]: INTRAPERITONEAL, Species: RAT, Strain/Sex: BDIV AND WISTAR/MALE, Target Tissue: Type of Lesion: LIVER: TUMOR, Dose [Carcinogen]: 100 MG/L IN DRINKING WATER DAILY FOR 5 MO): 18/19 (95%), 14/17 (82%), 14%, not calculated | tumour outcome (control, treated, inhibition, significance) (Carcinogen: N,N-DIETHYLNITROSAMINE, 55-18-5, Dose [Inhibitor]: 1 MG/L IN DRINKING WATER DAILY STARTING 10-15 D BEFORE CARCINOGEN TREATMENT AND CONTINUING FOR DURATION OF STUDY (STUDY, Route [Inhibitor]: ORAL, Species: RAT, Strain/Sex: BDIV AND WISTAR/MALE, Target Tissue: Type of Lesion: LIVER: TUMOR, Dose [Carcinogen]: 80 MG/KG BW IN 0.2 ML 0.9% SALINE 1/WK FOR 10 WK): 17/20 (85%), 15/20 (75%), 12%, not calculated | tumour outcome (control, treated, inhibition, significance) (Carcinogen: N,N-DIETHYLNITROSAMINE, 55-18-5, Dose [Inhibitor]: 5 MG/L IN DRINKING WATER DAILY STARTING 10-15 D BEFORE CARCINOGEN TREATMENT AND CONTINUING FOR DURATION OF STUDY (STUDY, Route [Inhibitor]: ORAL, Species: RAT, Strain/Sex: BDIV AND WISTAR/MALE, Target Tissue: Type of Lesion: LIVER: TUMOR, Dose [Carcinogen]: 80 MG/KG BW IN 0.2 ML 0.9% SALINE 1/WK FOR 10 WK): 15/16 (94%), 17/18 (94%), 0%, not calculated | tumour outcome (control, treated, inhibition, significance) (Carcinogen: N,N-DIETHYLNITROSAMINE, 55-18-5, Dose [Inhibitor]: 10 MG/L IN DRINKING WATER DAILY STARTING 10-15 D BEFORE CARCINOGEN TREATMENT AND CONTINUING FOR DURATION OF STUDY (STUDY, Route [Inhibitor]: ORAL, Species: RAT, Strain/Sex: BDIV AND WISTAR/MALE, Target Tissue: Type of Lesion: LIVER: TUMOR, Dose [Carcinogen]: 80 MG/KG BW IN 0.2 ML 0.9% SALINE 1/WK FOR 10 WK): 15/16 (94%), 9/13 (69%), 27%, not calculated | tumour outcome (control, treated, inhibition, significance) (Carcinogen: N,N-DIETHYLNITROSAMINE, 55-18-5, Dose [Inhibitor]: 10 MG/L IN DRINKING WATER DAILY STARTING 10-15 D BEFORE CARCINOGEN TREATMENT AND CONTINUING FOR DURATION OF STUDY (STUDY, Route [Inhibitor]: ORAL, Species: RAT, Strain/Sex: BDIV AND WISTAR/MALE, Target Tissue: Type of Lesion: LIVER: TUMOR, Dose [Carcinogen]: 100 MG/L IN DRINKING WATER DAILY FOR 5 MO): 18/19 (95%), 15/16 (94%), 1%, not calculated | tumour outcome (control, treated, inhibition, significance) (Carcinogen: N-METHYL-N'-NITRO-N-NITROSOGUANIDINE, 70-25-7, Dose [Inhibitor]: 10 MG/L IN DRINKING WATER DAILY STARTING 15 D BEFORE CARCINOGEN TREATMENT AND CONTINUING FOR DURATION OF STUDY (STUDY DU, Route [Inhibitor]: ORAL, Species: RAT, Strain/Sex: BDIV AND WISTAR/MALE, Target Tissue: Type of Lesion: STOMACH: TUMORS, Dose [Carcinogen]: 250 MG/KG BW PULSED DOSE IN 2 ML CORN OIL ONCE): 18/25 (72%), 12/35 (75%), -4%, not calculated | outcome (Carcinogen: N-METHYL-N-NITRO-N'-NITROSO-GUANIDINE [70-25-7], Dose [Inhibitor]: 0, 2, 4 MG/L FOR 1 WK PRIOR TO CARCINOGEN (STUDY DURATION: 43 WKS), Dose [Inhibitor]: 0, 2, 4 MG/L FOR 1 WK PRIOR TO CARCINOGEN (STUDY DURATION: 43 WKS), Route [Inhibitor]: DRINKING WATER, Species: RAT, Strain/Sex: WISTAR/MALE, Target Tissue: Type of Lesion: LEIOMYOMA, Dose [Carcinogen]: 20 MG/KG BW DAILY FOR 10 D): 23%; 47%, -104%; 43%, -87% | tumour outcome (control, treated, inhibition, significance) (Carcinogen: N-METHYL-N-NITROSOUREA, 684-9-35, Dose [Inhibitor]: 4 PPM IN DRINKING WATER DAILY FOR 10 MO STARTING SIMULTANEOUSLY WITH CARCINOGEN TREATMENT (STUDY DURATION: 10 MO), Route [Inhibitor]: ORAL, Species: RAT, Strain/Sex: WE/MALE, Target Tissue: Type of Lesion: BRAIN AND SPINAL CORD: NEOPLASM, Dose [Carcinogen]: 20 MG/KG BW ONCE EVERY 4 WK FOR 40 WK): 6/15 (40%), 9/16 (56%), -40%, not significant | tumour outcome (control, treated, inhibition, significance) (Carcinogen: N-METHYL-N-NITROSOUREA, 684-9-35, Dose [Inhibitor]: 4 PPM IN DRINKING WATER DAILY FOR 10 MO STARTING SIMULTANEOUSLY WITH CARCINOGEN TREATMENT (STUDY DURATION: 10 MO), Route [Inhibitor]: ORAL, Species: RAT, Strain/Sex: WE/MALE, Target Tissue: Type of Lesion: FORESTOMACH: NEOPLASM, Dose [Carcinogen]: 20 MG/KG BW ONCE EVERY 4 WK FOR 40 WK): 14/15 (93%), 16/16 (100%), -8%, not significant | tumour outcome (control, treated, inhibition, significance) (Carcinogen: N-METHYL-N-NITROSOUREA, 684-9-35, Dose [Inhibitor]: 4 PPM IN DRINKING WATER DAILY FOR 10 MO STARTING SIMULTANEOUSLY WITH CARCINOGEN TREATMENT (STUDY DURATION: 10 MO), Route [Inhibitor]: ORAL, Species: RAT, Strain/Sex: WE/MALE, Target Tissue: Type of Lesion: MAMMARY GLAND: NEOPLASM, Dose [Carcinogen]: 20 MG/KG BW ONCE EVERY 4 WK FOR 40 WK): 3/15 (20%), 4/16 (25%), -25%, not significant | tumour outcome (control, treated, inhibition, significance) (Carcinogen: N-METHYL-N-NITROSOUREA, 684-9-35, Dose [Inhibitor]: 4 PPM IN DRINKING WATER DAILY FOR 10 MO STARTING SIMULTANEOUSLY WITH CARCINOGEN TREATMENT (STUDY DURATION: 10 MO), Route [Inhibitor]: ORAL, Species: RAT, Strain/Sex: WE/MALE, Target Tissue: Type of Lesion: PERIPHERAL NERVES: NEOPLASM, Dose [Carcinogen]: 20 MG/KG BW ONCE EVERY 4 WK FOR 40 WK): 3/15 (20%), 8/16 (50%), -150%, not significant | tumour outcome (control, treated, inhibition, significance) (Carcinogen: N-METHYL-N-NITROSOUREA, 684-93-5, Dose [Inhibitor]: 1 MG IN DIET DAILY STARTING AT AGE 5 WK 2 WK PRIOR TO FIRST CARCINOGEN TREATMENT AND CONTINUING FOR DURATION OF STUDY (S, Route [Inhibitor]: ORAL, Species: HAMSTER, Strain/Sex: SYRIAN/MALE, Target Tissue: Type of Lesion: TRACHEA: CARCINOMA, Dose [Carcinogen]: 0.5% SOLUTION (PH 5) 1/WK FOR 12 WK): 9/34 (26%), 8/33 (24%), 8%, not significant | tumour outcome (control, treated, inhibition, significance) (Carcinogen: N-METHYL-N-NITROSOUREA, 684-93-5, Dose [Inhibitor]: 1 MG IN DIET DAILY STARTING AT AGE 5 WK 2 WK PRIOR TO FIRST CARCINOGEN TREATMENT AND CONTINUING FOR DURATION OF STUDY (S, Route [Inhibitor]: ORAL, Species: HAMSTER, Strain/Sex: SYRIAN/MALE, Target Tissue: Type of Lesion: TRACHEA: NEOPLASM, Dose [Carcinogen]: 0.5% SOLUTION (PH 5) 1/WK FOR 12 WK): 11/34 (32%), 9/33 (27%), 16%, not significant | tumour outcome (control, treated, inhibition, significance) (Carcinogen: N-METHYL-N-NITROSOUREA, 684-93-5, Dose [Inhibitor]: 1 MG/KG IN DIET DAILY STARTING 7 D AFTER CARCINOGEN TREATMENT AND CONTINUING FORDURATION OF STUDY (STUDY DURATION: 120 D, Route [Inhibitor]: ORAL, Species: RAT, Strain/Sex: SPRAGUE-DAWLEY/FEMALE, Target Tissue: Type of Lesion: MAMMARY GLAND: ADENOCARCINOMA, Dose [Carcinogen]: 35 MG/KG BW IN 0.9% SALINE ONCE AT 50 D OF AGE): 68%, 68%, 0%, not calculated | tumour outcome (control, treated, inhibition, significance) (Carcinogen: N-METHYL-N-NITROSOUREA, 684-93-5, Dose [Inhibitor]: 5 MG IN DIET DAILY STARTING AT AGE 5 WK 2 WK PRIOR TO FIRST CARCINOGEN TREATMENT AND CONTINUING FOR DURATION OF STUDY (S, Route [Inhibitor]: ORAL, Species: HAMSTER, Strain/Sex: SYRIAN/MALE, Target Tissue: Type of Lesion: TRACHEA: CARCINOMA, Dose [Carcinogen]: 0.5% SOLUTION (PH 5) 1/WK FOR 12 WK): 9/34 (26%), 10/31 (32%), -23%, not significant
